# Measured values as given in PubChem BioAssay (NCI).
#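 These data come from cells grown in 96-well plates and exposed to compound for 48 hours at five concentrations. Here, GI50 denotes the concentration required for 50% inhibition of growth. TGI marks complete inhibition of growth.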
# Assays:
# Assay in all cases: inhibition of tumour cell growth, NCI panel, 48 h
# [1] = test system: PC-3 prostate
# [2] = test system: HT29 colon
# [3] = test system: A498 renal
# [4] = test system: CCRF-CEM leukemia
# [5] = test system: SF-268 CNS
# [6] = test system: TK-10 renal
# [7] = test system: KM12 colon
# [8] = test system: HS 578T breast
# [9] = test system: UACC-62 melanoma
# [10] = test system: NCI/ADR-RES ovarian
# [11] = test system: ACHN renal
# [12] = test system: DU-145 prostate
# [13] = test system: OVCAR-8 ovarian
# [14] = test system: SN12C renal
# [15] = test system: NCI-H226 lung
# [16] = test system: SK-MEL-28 melanoma
# [17] = test system: UACC-257 melanoma
# [18] = test system: 786-0 renal
# [19] = test system: LOX IMVI melanoma
# [20] = test system: SF-295 CNS
# [21] = test system: COLO 205 colon
# [22] = test system: OVCAR-3 ovarian
# [23] = test system: MDA-MB-435
# [24] = test system: UO-31 renal
# [25] = test system: A549 NSCLC
# [26] = test system: HCT-116 colon
# [27] = test system: NCI-H522 lung
# [28] = test system: SF-539 CNS
# [29] = test system: OVCAR-5 ovarian
# [30] = test system: SNB-19 CNS
# [31] = test system: MOLT-4 leukemia
# [32] = test system: U251 CNS
# [33] = test system: EKVX NSCLC
# [34] = test system: HOP-92 NSCLC
# [35] = test system: SNB-75 CNS
# [36] = test system: HCC-2998 colon
# [37] = test system: SK-OV-3 ovarian
# [38] = test system: NCI-H23 lung
# [39] = test system: BT-549 breast
# [40] = test system: RXF 393 renal
# [41] = test system: M14 melanoma
# [42] = test system: SK-MEL-2 melanoma
# [43] = test system: MDA-MB-231 breast
# [44] = test system: OVCAR-4 ovarian
# [45] = test system: RPMI-8226 leukemia
# [46] = test system: HCT-15 colon
# [47] = test system: SW-620 colon
# [48] = test system: HOP-62 NSCLC
# [49] = test system: HL-60(TB) leukemia
# [50] = test system: SK-MEL-5 melanoma
# [51] = test system: NCI-H460 lung
# [52] = test system: IGROV1 ovarian
# [53] = test system: MCF7 breast
# [54] = test system: T-47D breast
# [55] = test system: CAKI-1 renal
# [56] = test system: K-562 leukemia
# [57] = test system: MALME-3M melanoma
# [58] = test system: MDA-MB-468 breast
structure (smiles),measurement,setting,value
FC(F)(F)CN1CCN(CCn2c(C(F)(F)F)cc3c(Cl)ncnc32)CC1,GI50,[1],3.53 µM
same,TGI,[1],12 µM
same,GI50,[2],5.46 µM
same,TGI,[2],36.6 µM
same,GI50,[3],21.3 µM
same,TGI,[3],57.4 µM
same,GI50,[4],4.37 µM
same,TGI,[4],> 100 µM
same,GI50,[5],5.2 µM
same,TGI,[5],21.4 µM
same,GI50,[6],35.5 µM
same,TGI,[6],> 100 µM
same,GI50,[7],17.9 µM
same,TGI,[7],39.9 µM
same,GI50,[8],14.2 µM
same,TGI,[8],59.8 µM
same,GI50,[9],4.69 µM
same,TGI,[9],18.1 µM
same,GI50,[10],19 µM
same,TGI,[10],46.6 µM
same,GI50,[11],12.3 µM
same,TGI,[11],> 100 µM
same,GI50,[12],12.5 µM
same,TGI,[12],32.8 µM
same,GI50,[13],3.2 µM
same,TGI,[13],11.7 µM
same,GI50,[14],7.75 µM
same,TGI,[14],23.1 µM
same,GI50,[15],17.4 µM
same,TGI,[15],72.8 µM
same,GI50,[16],8.13 µM
same,TGI,[16],37.4 µM
same,GI50,[17],4.09 µM
same,TGI,[17],16.9 µM
same,GI50,[18],22.3 µM
same,TGI,[18],60.7 µM
same,GI50,[19],1.68 µM
same,TGI,[19],3.1 µM
same,GI50,[20],10.3 µM
same,TGI,[20],25.9 µM
same,GI50,[21],18.4 µM
same,TGI,[21],46.2 µM
same,GI50,[22],14.3 µM
same,TGI,[22],34.4 µM
same,GI50,[23],5.5 µM
same,TGI,[23],19.5 µM
same,GI50,[24],1.63 µM
same,TGI,[24],3.27 µM
same,GI50,[25],52.9 µM
same,TGI,[25],> 100 µM
same,GI50,[26],3.16 µM
same,TGI,[26],13.3 µM
same,GI50,[27],1.7 µM
same,TGI,[27],3.52 µM
same,GI50,[28],12.6 µM
same,TGI,[28],28.7 µM
same,GI50,[29],> 100 µM
same,TGI,[29],> 100 µM
same,GI50,[30],13.2 µM
same,TGI,[30],26.8 µM
same,GI50,[31],2.4 µM
same,TGI,[31],9.2 µM
same,GI50,[32],2.4 µM
same,TGI,[32],6.43 µM
same,GI50,[33],11.6 µM
same,TGI,[33],40.4 µM
same,GI50,[34],12.9 µM
same,TGI,[34],29.2 µM
same,GI50,[35],3.11 µM
same,TGI,[35],14.2 µM
same,GI50,[36],1.83 µM
same,TGI,[36],3.28 µM
same,GI50,[37],16.2 µM
same,TGI,[37],43.2 µM
same,GI50,[38],5.84 µM
same,TGI,[38],26.6 µM
same,GI50,[39],13 µM
same,TGI,[39],26.8 µM
same,GI50,[40],11 µM
same,TGI,[40],28.1 µM
same,GI50,[41],6.19 µM
same,TGI,[41],23.1 µM
same,GI50,[42],15.7 µM
same,TGI,[42],30.9 µM
same,GI50,[43],1.76 µM
same,TGI,[43],4.28 µM
same,GI50,[44],26.8 µM
same,TGI,[44],> 100 µM
same,GI50,[45],23.7 µM
same,TGI,[45],77.4 µM
same,GI50,[46],2.55 µM
same,TGI,[46],7.37 µM
same,GI50,[47],4.86 µM
same,TGI,[47],19.5 µM
same,GI50,[48],13.8 µM
same,TGI,[48],32.5 µM
same,GI50,[49],2.75 µM
same,TGI,[49],8.18 µM
same,GI50,[50],3.73 µM
same,TGI,[50],13.7 µM
same,GI50,[51],2.66 µM
same,TGI,[51],6.73 µM
same,GI50,[52],1.78 µM
same,TGI,[52],3.54 µM
same,GI50,[53],10 µM
same,TGI,[53],42.6 µM
same,GI50,[54],17.3 µM
same,TGI,[54],63.7 µM
same,GI50,[55],13.6 µM
same,TGI,[55],30.6 µM
same,GI50,[56],2.8 µM
same,TGI,[56],> 100 µM
same,GI50,[57],14.5 µM
same,TGI,[57],32 µM
same,GI50,[58],2.19 µM
same,TGI,[58],4.94 µM
